SMILES strings stand for the structures.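 Compound exposure: 48 hours, 5 concentrations, 96-well plates. GI50 = concentration required for 50% inhibition of growth.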 Calls of active or inactive are those of the source. No stated cut-off is given here; in the data, active = GI50 up to about 1.1 µM and inactive = higher. Where only a bound is given, the exact number is not on record here.

Common to all, as to experiment: NCI anticancer screen, dose series, 48 h
In assay [1] the test system is OVCAR-4.
Assay [2] relates to M19-MEL.
Assay [3] has as its system Malme-3M.
The subject of assay [4] is HOP-62.
The test system of assay [5] is SR.
In assay [6] the test system is UACC-257.
Assay [7] concerns HCC 2998.
Assay [8] has as its system KM12.
Assay [9] concerns NCI-H23.
The subject of assay [10] is SF-539.
In assay [11] the test system is SNB-19.
The test system of assay [12] is A498.
The test system of assay [13] is HCT-116.
The subject of assay [14] is EKVX.
In assay [15] the test system is RXF 393.
For assay [16], the system named is LOX IMVI.
In assay [17] the test system is M14.
Assay [18] has as its system MCF7.
Assay [19] has as its system BT-549.

As to `CC(C)C(=S)N(C)O`, the GI50 in assay [1] was 9.89 µM (inactive); in assay [2], 11.4 µM (inactive); in assay [3] it was 53.7 µM (inactive); in assay [4] it was 24.5 µM (inactive); in [5] it was 0.481 µM (active); in assay [6] it was 29.1 µM (inactive). In addition, the GI50 in assay [7] was 40.2 µM (inactive); in assay [8], 17.7 µM (inactive); in assay [9], 29.8 µM (inactive); in assay [10], 25.6 µM (inactive); in assay [11], > 29.2 µM (inactive); in [12], 19.1 µM (inactive). The GI50 in assay [13] was 2.29 µM (inactive); in assay [14], 23.1 µM (inactive); in assay [15], 98.9 µM (inactive); in assay [16], 11.8 µM (inactive); in assay [17], 21.6 µM (inactive).

As for `COC(=O)CC1NC(=O)C1C(C)(OC)OC` (centres undefined), the GI50 in [1], in [2], in assay [3], in assay [4], in [5] and in assay [6] was > 100 µM (inactive) throughout. In addition, the GI50 in assay [7], in [9], in assay [10], in assay [11], in assay [12] and in assay [13] was > 100 µM (inactive) in each case. Also, the GI50 in assay [14], in [15], in assay [16] and in [17] was > 100 µM (inactive) throughout.

In the case of `CC(=O)OC1COC(Nc2ccc(C(C)=O)cc2)C(OC(C)=O)C1OC(C)=O` (centres undefined), the GI50 in assay [1], in assay [2], in assay [3], in assay [4], in [5] and in assay [6] was > 100 µM (inactive) each time. Also, the GI50 in [7], in assay [8], in assay [9], in assay [10], in assay [11] and in assay [12] was > 100 µM (inactive) in each case. Also, the GI50 in assay [14], in assay [15], in [16] and in assay [17] was > 100 µM (inactive) throughout.

With `COc1ccc(/C=N/NC(=O)C2=C(N)N(c3ccccc3)C(=C(C#N)C#N)S2)cc1`, the GI50 in assay [1] was > 100 µM (inactive); in assay [2], > 100 µM (inactive); in assay [3], > 100 µM (inactive); in assay [4], 53.8 µM (inactive); in [18], > 100 µM (inactive); in [5], > 100 µM (inactive). Also, the GI50 was > 100 µM (inactive) in assay [6]; > 100 µM (inactive) in assay [7]; > 100 µM (inactive) in assay [8]; > 100 µM (inactive) in assay [19]; > 100 µM (inactive) in [9]; 48.1 µM (inactive) in assay [10]. Besides, the GI50 in assay [11] was 70 µM (inactive); in assay [12], 22.6 µM (inactive); in assay [13] it was > 100 µM (inactive); in assay [14], > 100 µM (inactive); in assay [17] it was > 100 µM (inactive).

With `CCOC(OC1=CCCC1)C(C)[Se]c1ccccc1` (centres undefined), the GI50 in assay [1] was 44.2 µM (inactive); in assay [2], 24.4 µM (inactive); in assay [3], 32.8 µM (inactive); in [4], > 100 µM (inactive); in assay [5], 14.2 µM (inactive); in [6], 36 µM (inactive). The GI50 in assay [7] is 32.4 µM (inactive); in [8], 43.8 µM (inactive); in assay [9], 26.9 µM (inactive); in assay [10], 23.8 µM (inactive); in [11] it was > 100 µM (inactive); in assay [12] it was 18.2 µM (inactive). Further, the GI50 in assay [13] was 20.9 µM (inactive); in assay [14], 34.2 µM (inactive); in assay [15], 32.9 µM (inactive); in assay [16], 14.7 µM (inactive); in [17], 36.4 µM (inactive).

As to `CC(=O)O/N=C/c1ncccc1OC(C)=O`, the GI50 in [1], in assay [2], in assay [3], in assay [4], in assay [5] and in assay [6] was > 100 µM (inactive) in each case. Moreover, the GI50 in assay [8], in [9], in assay [10], in assay [11], in assay [12] and in assay [13] was > 100 µM (inactive) in each case. Also, the GI50 in assay [14], in assay [15], in assay [16] and in assay [17] was > 100 µM (inactive) throughout.

With `COC1OC2COC(c3ccccc3)OC2C(O)C1Br` (centres undefined), the GI50 in assay [1], in assay [2], in [3], in assay [4], in [5] and in [6] was > 100 µM (inactive) each time. Moreover, the GI50 in assay [7], in [8], in assay [9], in assay [10], in [11] and in assay [12] was > 100 µM (inactive) throughout. The GI50 in assay [13], in [15], in assay [16] and in [17] was > 100 µM (inactive) each time.

With `COc1cc(/C=C2\[C@H]3c4c(c(OC)c(C)c(OC)c4OC)CC(C(=O)N2Cc2ccccc2)N3C)c(OC)c(C)c1OC`, the GI50 was 16.1 µM (inactive) in assay [1]; 17.4 µM (inactive) in assay [2]; 21.9 µM (inactive) in [3]; 19.5 µM (inactive) in assay [4]; 21.2 µM (inactive) in assay [5]; 21 µM (inactive) in [6]. The GI50 in assay [7] was 21.7 µM (inactive); in assay [8], 36 µM (inactive); in assay [9], 34.3 µM (inactive); in assay [10], 19.3 µM (inactive); in assay [11] it was 27.2 µM (inactive); in assay [12], 27 µM (inactive). In addition, the GI50 in [13] was > 100 µM (inactive); in assay [14] it was 26.1 µM (inactive); in assay [15], > 100 µM (inactive); in assay [16] it was 18.4 µM (inactive); in assay [17] it was 18.1 µM (inactive).

As to `COC(=O)[C@@H]1C(=O)O[C@@H](c2ccc(OC)c(OC)c2OC)[C@@H]1C(=O)OC.COC(=O)[C@H]1C(=O)O[C@@H](c2ccc(OC)c(OC)c2OC)[C@@H]1C(=O)OC`, the GI50 in [1], in assay [2], in assay [3], in [4], in assay [5] and in assay [6] was > 100 µM (inactive) each time. Besides, the GI50 in assay [7], in assay [8], in assay [9], in [10], in assay [11] and in assay [12] was > 100 µM (inactive) each time. For the same compound, the GI50 in assay [13], in [14], in assay [15], in [16] and in assay [17] was > 100 µM (inactive) in each case.

For `CN1N=C2c3ccccc3CC[C@H]2C1c1cccc(O)c1` (some centres undefined), the GI50 in assay [1] was 75.9 µM (inactive); in [2], > 100 µM (inactive); in assay [3], 0.463 µM (active); in assay [4] it was > 100 µM (inactive); in assay [5] it was > 100 µM (inactive); in assay [6], > 100 µM (inactive). The GI50 in assay [7], in assay [8], in [9], in [10], in [11] and in assay [12] was > 100 µM (inactive) throughout. The GI50 in assay [13] was 3.05 µM (inactive); in assay [14], > 100 µM (inactive); in [15] it was 77.4 µM (inactive); in assay [16], > 100 µM (inactive); in assay [17], > 100 µM (inactive).

With `COc1cc2nc(Sc3c([N+](=O)[O-])ncn3C)[nH]c2cc1OC`, the GI50 in assay [1] was 38.5 µM (inactive); in [2], 33.1 µM (inactive); in assay [3], 56.2 µM (inactive); in assay [4], > 100 µM (inactive); in assay [5], 13.3 µM (inactive); in [6], 28.6 µM (inactive). Also, the GI50 was 17.9 µM (inactive) in [7]; 46.7 µM (inactive) in assay [8]; 26.1 µM (inactive) in [9]; 18.6 µM (inactive) in assay [10]; 26.1 µM (inactive) in assay [11]; 78 µM (inactive) in [12]. Besides, the GI50 in assay [13] is 27.4 µM (inactive); in assay [14] it was 21.2 µM (inactive); in assay [15], 16.1 µM (inactive); in assay [16], 41.6 µM (inactive); in assay [17] it was 87.5 µM (inactive).

For the compound `CCCCCCCC[N+](C)(C)Cc1ccc(C[N+](C)(C)CCCCCCCC)cc1`, the GI50 was 18.6 µM (inactive) in assay [1]; 31.3 µM (inactive) in assay [2]; 95.3 µM (inactive) in assay [3]; 4.11 µM (inactive) in assay [4]; > 100 µM (inactive) in [5]; 41.9 µM (inactive) in assay [6]. Also, the GI50 was 31.5 µM (inactive) in assay [7]; 11.7 µM (inactive) in [8]; 4.55 µM (inactive) in assay [9]; 24.6 µM (inactive) in [11]; 38.1 µM (inactive) in assay [12]; > 100 µM (inactive) in [13]. The GI50 is > 100 µM (inactive) in assay [14], 78.7 µM (inactive) in [15], 84.5 µM (inactive) in [16] and 85.9 µM (inactive) in [17].

The values are drawn from ChEMBL document CHEMBL1201862, “PubChem BioAssay data set” (2004).
